Data from ChEMBL document CHEMBL1201862, “PubChem BioAssay data set” (2004).
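Test compounds were applied to cells in 96-well plates for 48 hours at 5 doses. At the GI50, growth is halved.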 Activity calls are given as the source filed them. Rule as the data show it: active = GI50 up to about 1.1 µM and inactive = higher.

Legend:
Assay in all cases: DTP human tumour cell line panel, 48 h
786-0 = tested on: 786-0
A549 = tested on: A549
CAKI-1 = tested on: CAKI-1
CCRF-CEM = tested on: CCRF-CEM
EKVX = tested on: EKVX
HT-29 = tested on: HT-29
KM12 = tested on: KM12
MCF7 = tested on: MCF7
MDA-MB-231 = tested on: MDA-MB-231
MDA-MB-435 = tested on: MDA-MB-435
MDA-N = tested on: MDA-N
NCI/ADR-RES = tested on: NCI/ADR-RES
PC-3 = tested on: PC-3
RXF 393 = tested on: RXF 393
SK-MEL-2 = tested on: SK-MEL-2
SN12C = tested on: SN12C
T47D = tested on: T47D
UACC-257 = tested on: UACC-257
HOP-92 = tested on: HOP-92

Compound | GI50 (786-0) | GI50 (A549) | GI50 (CAKI-1) | GI50 (CCRF-CEM) | GI50 (EKVX) | GI50 (HT-29) | GI50 (KM12) | GI50 (MCF7) | GI50 (MDA-MB-231) | GI50 (MDA-MB-435) | GI50 (MDA-N) | GI50 (NCI/ADR-RES) | GI50 (PC-3) | GI50 (RXF 393) | GI50 (SK-MEL-2) | GI50 (SN12C) | GI50 (T47D) | GI50 (UACC-257) | GI50 (HOP-92)
CCOc1cc(-c2nc3cc(F)ccc3s2)ccc1O | 14.4 µM (inactive) | 17.9 µM (inactive) | 16.9 µM (inactive) | 0.6 µM (active) | 10.8 µM (inactive) | 18.1 µM (inactive) | 17 µM (inactive) | 5.64 µM (inactive) | 21.8 µM (inactive) | 18.2 µM (inactive) | 15.8 µM (inactive) | 23 µM (inactive) | 14.5 µM (inactive) | 18.6 µM (inactive) | 17.2 µM (inactive) | 19.1 µM (inactive) | 11.6 µM (inactive) | 16.8 µM (inactive) | 
O=C(CCNC12CC3CC(CC(C3)C1)C2)c1ccccc1 | 16.3 µM (inactive) | 30.1 µM (inactive) | > 10 µM (inactive) | 11.6 µM (inactive) |  | 2.79 µM (inactive) | 23.6 µM (inactive) | 19.3 µM (inactive) | 13.4 µM (inactive) | 26.5 µM (inactive) | 16 µM (inactive) | 21.2 µM (inactive) | 19.6 µM (inactive) | 20.1 µM (inactive) | 15.9 µM (inactive) | 16.6 µM (inactive) | 20.6 µM (inactive) | 15.3 µM (inactive) | 20.4 µM (inactive)
COC(=O)[C@H](CCSC)NC(=O)c1ccc(CNC(=O)/C(C)=C/c2ccccc2)cc1 | 20.8 µM (inactive) | 52 µM (inactive) | 30.6 µM (inactive) | > 100 µM (inactive) | 83.2 µM (inactive) | 21 µM (inactive) | 82.4 µM (inactive) | 80.2 µM (inactive) | 46.8 µM (inactive) | 74.5 µM (inactive) | 55.6 µM (inactive) | 25.9 µM (inactive) | 47 µM (inactive) | 15.8 µM (inactive) | 20.7 µM (inactive) | 88.1 µM (inactive) | 21.8 µM (inactive) | 20.7 µM (inactive) | 25.8 µM (inactive)
CCOC(=O)CCC(NC(=O)c1ccc(NCc2ccc3nc(-c4ccccc4)c(Cl)nc3c2)c2ccccc12)C(=O)OCC (stereo not drawn) | > 100 µM (inactive) | > 100 µM (inactive) | > 100 µM (inactive) |  | > 100 µM (inactive) | > 100 µM (inactive) | > 100 µM (inactive) | 43.5 µM (inactive) | > 100 µM (inactive) | > 100 µM (inactive) | > 100 µM (inactive) | > 100 µM (inactive) | > 100 µM (inactive) | > 100 µM (inactive) | 72.9 µM (inactive) | > 100 µM (inactive) | 13.9 µM (inactive) | 16.2 µM (inactive) | > 100 µM (inactive)
Cc1ccc2c(c1)C(=O)C1(C2)Cc2c(C)cccc2C1=O (stereo not drawn) | > 100 µM (inactive) | > 100 µM (inactive) | > 100 µM (inactive) | > 100 µM (inactive) | > 100 µM (inactive) | > 100 µM (inactive) | > 100 µM (inactive) | > 100 µM (inactive) | > 100 µM (inactive) | > 100 µM (inactive) | > 100 µM (inactive) | > 100 µM (inactive) | > 100 µM (inactive) | > 100 µM (inactive) |  | > 100 µM (inactive) | > 100 µM (inactive) | > 100 µM (inactive) | > 100 µM (inactive)
CCOC(=O)c1ccc(Nc2nc3cc(C(F)(F)F)ccc3nc2-c2ccccc2)cc1 | 18.7 µM (inactive) | > 100 µM (inactive) | 42.9 µM (inactive) | 43.3 µM (inactive) | 49.8 µM (inactive) | > 10 µM (inactive) | 28.4 µM (inactive) | 19.8 µM (inactive) | 79.6 µM (inactive) | 69.3 µM (inactive) | > 100 µM (inactive) | 70.5 µM (inactive) | 22.2 µM (inactive) | 21.4 µM (inactive) |  | 86.1 µM (inactive) | 35.7 µM (inactive) | > 100 µM (inactive) | 
CC(C)(N)C(=O)N[C@@H]1C(=O)N2[C@@H]1SC(C)(C)[C@@H]2C(=O)O | > 100 µM (inactive) | > 100 µM (inactive) | > 100 µM (inactive) |  | > 100 µM (inactive) | > 100 µM (inactive) | > 100 µM (inactive) | > 100 µM (inactive) | > 100 µM (inactive) | > 100 µM (inactive) | > 100 µM (inactive) | > 100 µM (inactive) | > 100 µM (inactive) | > 100 µM (inactive) | > 100 µM (inactive) | > 100 µM (inactive) | > 100 µM (inactive) | > 100 µM (inactive) | > 100 µM (inactive)
FC(F)(F)c1n[nH]c(SCc2ccc(Cl)cc2)n1 | > 100 µM (inactive) | > 100 µM (inactive) | > 100 µM (inactive) |  | > 100 µM (inactive) | > 100 µM (inactive) | > 100 µM (inactive) | > 100 µM (inactive) | > 100 µM (inactive) | > 100 µM (inactive) | > 100 µM (inactive) | > 100 µM (inactive) | > 100 µM (inactive) | > 100 µM (inactive) | > 100 µM (inactive) | > 100 µM (inactive) | > 100 µM (inactive) | > 100 µM (inactive) | > 100 µM (inactive)
CNC(=O)N1CN(c2ccccc2)C2(CCN(CCCC3(c4ccc(F)cc4)OCCO3)CC2)C1=O | > 100 µM (inactive) | > 100 µM (inactive) | > 100 µM (inactive) | > 100 µM (inactive) | > 100 µM (inactive) | > 100 µM (inactive) | > 100 µM (inactive) | > 100 µM (inactive) | > 100 µM (inactive) | > 100 µM (inactive) | > 100 µM (inactive) | > 100 µM (inactive) | > 100 µM (inactive) | > 100 µM (inactive) | > 100 µM (inactive) | > 100 µM (inactive) | > 100 µM (inactive) |  | > 100 µM (inactive)
Cc1cc(C)nc(NS(=O)(=O)c2ccc(Nc3c4ccccc4nc4c(C(=O)NCCCN(CCO)CCO)cccc34)cc2)n1 | > 10 µM (inactive) | 26.4 µM (inactive) | 56.2 µM (inactive) | 7.66 µM (inactive) | 36.6 µM (inactive) | 12.9 µM (inactive) | 12.6 µM (inactive) | 5.89 µM (inactive) | 27.4 µM (inactive) | 16 µM (inactive) | 17.7 µM (inactive) | > 100 µM (inactive) | 14.9 µM (inactive) |  | 14.2 µM (inactive) | 8.22 µM (inactive) | 22.5 µM (inactive) | > 100 µM (inactive) | 5.18 µM (inactive)
ClC(Cl)(Cl)C1CCOC1n1nc2ccccc2n1 (stereo not drawn) | > 100 µM (inactive) | > 100 µM (inactive) | > 100 µM (inactive) | > 100 µM (inactive) | > 100 µM (inactive) | > 100 µM (inactive) |  | > 100 µM (inactive) | > 100 µM (inactive) | > 100 µM (inactive) | > 100 µM (inactive) | > 100 µM (inactive) | > 100 µM (inactive) | > 100 µM (inactive) | > 100 µM (inactive) | > 100 µM (inactive) | > 100 µM (inactive) | > 100 µM (inactive) | 
Cc1ccc(Nc2nnc3n2S(=O)(=O)c2cc(C)c(Cl)cc2S3)cc1 | 10.3 µM (inactive) | 8.39 µM (inactive) | 23 µM (inactive) |  | 25.4 µM (inactive) | 10.3 µM (inactive) | 6.56 µM (inactive) | 5.26 µM (inactive) | 13.4 µM (inactive) | 3.64 µM (inactive) | 1.7 µM (inactive) | 16.1 µM (inactive) | 4.39 µM (inactive) | 10.5 µM (inactive) | 3.91 µM (inactive) |  | 17.7 µM (inactive) | 34.5 µM (inactive) | 4.89 µM (inactive)
C(/Cc1ccc2c(c1)OCO2)=N\N=C1NCCCN1 | 78.2 µM (inactive) | 36.7 µM (inactive) |  | 48.5 µM (inactive) | 48.9 µM (inactive) | 65.5 µM (inactive) | > 100 µM (inactive) | 26.9 µM (inactive) | > 100 µM (inactive) | > 100 µM (inactive) | > 100 µM (inactive) | 84.1 µM (inactive) | 36.3 µM (inactive) | 42.9 µM (inactive) | > 100 µM (inactive) | 54.3 µM (inactive) | 19.5 µM (inactive) | > 100 µM (inactive) | 70.1 µM (inactive)
CCOC(=O)c1nnsc1NC(=O)NN | 89.3 µM (inactive) | > 100 µM (inactive) | > 100 µM (inactive) | > 100 µM (inactive) | > 100 µM (inactive) | > 100 µM (inactive) | > 100 µM (inactive) | > 100 µM (inactive) | 25.4 µM (inactive) | > 100 µM (inactive) | > 100 µM (inactive) | > 100 µM (inactive) | > 100 µM (inactive) | > 100 µM (inactive) | > 100 µM (inactive) | > 100 µM (inactive) | > 100 µM (inactive) | > 100 µM (inactive) | 
CCOC(=O)c1nc2ccc(C(F)(F)F)cc2nc1NCc1ccc(OC)c(OC)c1 | > 100 µM (inactive) | 50.2 µM (inactive) | > 100 µM (inactive) | 65.6 µM (inactive) | 44.8 µM (inactive) | 32.1 µM (inactive) | 55.5 µM (inactive) | 37.7 µM (inactive) | > 100 µM (inactive) | 50.1 µM (inactive) | 51.3 µM (inactive) | 37 µM (inactive) | 35.5 µM (inactive) | 43.6 µM (inactive) | 24.2 µM (inactive) |  | 48.1 µM (inactive) | 61.4 µM (inactive) | 29.7 µM (inactive)
